Experimental data from patent publication US20240254138A1, “TRICYCLIC PYRIMIDINES AS CYCLIN-DEPENDENT KINASE 7 (CDK7) INHIBITORS” (JANSSEN PHARMACEUTICA NV, priority 2021, published 2024).
Where two headings read alike, the source gives them in different places.

How the values were obtained:
[1] = target: CDK7/cyclinH/MAT1 trimeric complex (Homo sapiens, UniProt P50613); assay: In vitro CDK7 assay, potency of irreversible covalent inhibitors (kinact/KI), coupled PK/LDH ADP readout at 340 nm
[2] = system: RNA Polymerase II Serine 5 phosphorylation (Rpb1 CTD, downstream substrate of CDK7) in A549 cells; assay: Imaging-based cellular RNA PolII Ser5 phosphorylation assay in A549 cells; type: cell-based, human; conditions: for IC50: Homo sapiens; for CDK7_A549 Wild-type CDK7 (pIC50): A549 cells
Summary of the method: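 A549 cells, seeded 1000/well in DMEM with 1% FBS and cultured 20 h, were treated with compound for 3 h at 37 °C. Ser5-phospho-Rpb1 CTD detected by immunofluorescence imaging after fixation and methanol permeabilization; IC50 from curve fit normalized to DMSO and 10 μM reference-compound controls.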

[3] = system: RNA Polymerase II Serine 5 phosphorylation in A549 cells overexpressing CDK7-mutant (C312S); assay: Imaging-based cellular RNA PolII Ser5 phosphorylation assay in A549 cells overexpressing CDK7-mutant (C312S); type: cell-based, human; conditions: for IC50: Homo sapiens; for CDK7_A549 mutant hCDK7(pIC50): A549 cells overexpressing CDK7-mutant (C312S)
Summary of the method: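 A549 cells overexpressing CDK7 C312S (with endogenous wild-type CDK7) were treated with compound for 3 h at 37 °C in 1% FBS medium. Phospho-Rpb1 CTD Ser5 was immunostained after fixation and imaged. IC50 came from curve fit of % control, normalised to DMSO and 10 μM reference-compound controls.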

[4] = read-out: CDK7 (20 nM enz.) (kobs/[I], M^−1*s^−1), 20 nM enzyme
[5] = A549, A549 cells, wild-type CDK7, RNA PolII Ser5 phosphorylation, averaged over all measurements, read-out: CDK7_A549 Wild-type CDK7 (pIC50) (converted)
[6] = A549, A549 cells overexpressing CDK7-mutant (C312S), RNA PolII Ser5 phosphorylation, averaged over all measurements, read-out: CDK7_A549 mutant hCDK7(pIC50) (converted)
[7] = CDK7 (20 nM enz.) (KI, μM), 20 nM enzyme
[8] = read-out: CDK7 (20 nM enz.) (kinact, s^−1), 20 nM enzyme
[9] = read-out: CDK7 (20 nM enz.) (kinact/KI, M^−1*s^−1), 20 nM enzyme
[10] = read-out: CDK7 (kinact/KI, M^−1*s^−1), potency of irreversible covalent inhibitors, 1 mM ATP, room temperature, averaged values over all measurements
[11] = CDK7 (KI(μM)), […], 1 mM ATP, room temperature, averaged values over all measurements
[12] = read-out: CDK7 (kinact, s^−1), kinact = maximal rate of inactivation, 1 mM ATP, room temperature, averaged values over all measurements
[13] = wild-type CDK7, RNA PolII Ser5 phosphorylation, averaged over all measurements
[14] = RNA PolII Ser5 phosphorylation, averaged over all measurements

CDK7/cyclinH/MAT1 trimeric complex, sequence (P50613 whole entry): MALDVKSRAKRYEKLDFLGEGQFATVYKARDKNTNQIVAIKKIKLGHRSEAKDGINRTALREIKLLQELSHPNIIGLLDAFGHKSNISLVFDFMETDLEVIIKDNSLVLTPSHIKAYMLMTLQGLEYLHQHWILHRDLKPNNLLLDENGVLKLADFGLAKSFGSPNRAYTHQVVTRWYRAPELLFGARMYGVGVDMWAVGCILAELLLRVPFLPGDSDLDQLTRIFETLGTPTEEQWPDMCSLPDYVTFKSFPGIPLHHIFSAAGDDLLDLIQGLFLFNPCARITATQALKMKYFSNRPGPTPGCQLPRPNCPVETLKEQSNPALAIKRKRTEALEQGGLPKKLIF
CDK7/cyclinH/MAT1 trimeric complex, sequence (P51946 whole entry partner): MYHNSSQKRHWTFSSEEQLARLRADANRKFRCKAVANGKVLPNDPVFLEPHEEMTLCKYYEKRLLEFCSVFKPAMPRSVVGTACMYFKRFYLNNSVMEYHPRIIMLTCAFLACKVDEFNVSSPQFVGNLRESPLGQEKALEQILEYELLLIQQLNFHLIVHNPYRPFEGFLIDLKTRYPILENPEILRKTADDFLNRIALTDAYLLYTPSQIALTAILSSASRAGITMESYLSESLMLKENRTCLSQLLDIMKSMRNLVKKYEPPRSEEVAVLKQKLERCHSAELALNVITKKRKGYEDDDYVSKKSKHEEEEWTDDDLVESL
CDK7/cyclinH/MAT1 trimeric complex, sequence (P51948 whole entry partner): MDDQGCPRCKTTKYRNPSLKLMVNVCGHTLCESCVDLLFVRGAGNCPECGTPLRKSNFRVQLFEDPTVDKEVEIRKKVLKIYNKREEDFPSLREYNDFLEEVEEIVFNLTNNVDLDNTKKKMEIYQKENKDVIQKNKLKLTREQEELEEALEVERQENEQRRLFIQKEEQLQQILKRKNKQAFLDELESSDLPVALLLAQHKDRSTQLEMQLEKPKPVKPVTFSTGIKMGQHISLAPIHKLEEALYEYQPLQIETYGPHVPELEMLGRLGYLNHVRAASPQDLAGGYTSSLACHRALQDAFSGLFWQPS

Structure (SMILES)	IC50 [2, 5] [nM]	IC50 [3, 6] [nM]	kinact/KI [1, 10] [M⁻¹ s⁻¹]	Ki [1, 11] [µM]	kinact [1, 12] [s⁻¹]	further results
C#CCN(C(=O)C=C)c1ccc(C(=O)Nc2ccc3c(c2)Nc2nccc(C4CCOCC4)c2CO3)cc1 [Compound 17]	126	> 10000	–	–	–	kinact/KI [1, 4]: 1470 M⁻¹ s⁻¹
C#Cc1cc(C(=O)Nc2ccc3c(c2)Nc2nccc(C4CCOCC4)c2CO3)ccc1NC(=O)C=C [Compound 18]	100	4270	–	–	–	kinact/KI [1, 4]: 1070 M⁻¹ s⁻¹
C=CC(=C)N1CC(N2CCC(c3cc4c(cc3C)OCc3c(N5CCOCC5)ccnc3N4)CC2)C1 [Compound 19]	–	–	–	–	–	kinact/KI ([1]; read-out: CDK7 (kinact/KI, M^−1*s^−1)): 304 M⁻¹ s⁻¹; IC50 ([2]; A549, read-out: CDK7_A549 Wild-type CDK7 (pIC50) (converted)): 166 nM; IC50 ([3]; A549, read-out: CDK7_A549 mutant hCDK7(pIC50) (converted)): > 10000 nM
C=CC(=O)N1CC(N2CCC(c3ccc4c(c3)Nc3nccc(N5CCOCC5)c3C(C)O4)CC2)C1 (stereo not shown) [Compound 22]	56.2	> 10000	52.4	–	–	Ki [1, 7]: 0.0524 µM; kinact [1, 8]: 7.22e-05 s⁻¹; kinact/KI [1, 9]: 1870 M⁻¹ s⁻¹
C=CC(=O)N1CC(N2CCC(c3cc4c(cc3Cl)OCc3c(N5CCOCC5)ccnc3N4)CC2)C1 [Compound 23]	120	> 10000	455	–	–	–
C=CC(=O)Nc1cc(-c2ccc3c(c2)Nc2nccc(N4CCOCC4)c2CO3)ccn1 [Compound 24]	52.5	6920	21.5	–	–	kinact/KI [1, 9]: 1250 M⁻¹ s⁻¹
C=CC(=O)N1CCC(c2ccc(-c3ccc4c(c3)Nc3nccc(N5CCOCC5)c3CO4)cn2)C1 (stereo not shown) [Compound 25]	891	> 10000	254	0.0648	2.33e-05	–
C=CC(=O)Nc1ccc(-c2ccc3c(c2)Nc2nccc(N4CCOCC4)c2CO3)cn1 [Compound 26]	–	–	1620	0.063	0.000102	CDK7 (20 nM enz.) (kobs/[I], M^−1*s^−1) ([1]; 20 nM enzyme): 1343.33 M⁻¹ s⁻¹; CDK7_A549 Wild-type CDK7 (pIC50) [2, 13]: 7.65; CDK7_A549 mutant hCDK7(pIC50) [3, 14]: ~5.1
C=CC(=O)N1CC(N2CCC(c3cc4c(cc3F)OCc3c(N5CCOCC5)ccnc3N4)CC2)C1 [Compound 28]	257	> 10000	477	–	–	–
C=CC(=O)N1CC(N2CCC(c3cc(Cl)c4c(c3)Nc3nccc(N5CCOCC5)c3CO4)CC2)C1 [Compound 29]	38.9	~7760	–	–	–	kinact/KI [1, 9]: 1030 M⁻¹ s⁻¹
C=CC(=O)N1CCC(C#Cc2ccc3c(c2)Nc2nccc(C4CCOCC4)c2CO3)CC1 [Compound 30]	~7590	> 10000	208	0.316	6.56e-05	–
C=CC(=O)N1CC(N2CCC(c3ccc4c(c3)Nc3nccc(-c5cnc6[nH]ccc6c5)c3CO4)CC2)C1 [Compound 31]	437	> 10000	638	0.175	0.000112	–
C=CC(=O)N1CC(C#Cc2ccc3c(c2)Nc2nccc(C4CCOCC4)c2CO3)C1 [Compound 33]	603	> 10000	1050	0.15	0.000158	–
C=CC(=O)N1CCC(N2CC(c3ccc4c(c3)Nc3nccc(C5CCOCC5)c3CO4)C2)CC1 [Compound 36]	–	–	–	–	–	CDK7 (20 nM enz.) (kinact/KI, M^−1*s^−1) ([1]; 20 nM enzyme): 535 M⁻¹ s⁻¹; Ki [1, 7]: 0.092 µM; kinact [1, 8]: 4.92e-05 s⁻¹; CDK7_A549 Wild-type CDK7 (pIC50) [2, 13]: 6.89; CDK7_A549 mutant hCDK7(pIC50) [3, 14]: 5.04
C=CC(=O)N1CC(N2CCC(c3ccc4c(c3)Nc3ncc(C)c(N5CCOCC5)c3CO4)CC2)C1 [Compound 37]	851	> 10000	849	0.129	0.00011	–
C=CC(=O)N1CC(N2CCC(c3ccc4c(c3)Nc3nccc(-c5cnn(C)c5)c3CO4)CC2)C1 [Compound 39]	141	> 10000	803	–	–	–
C=CC(=O)N1CC(N2CCCC(c3ccc4c(c3)Nc3nccc(N5CCOCC5)c3CO4)C2)C1 (stereo not shown) [Compound 40]	1120	> 10000	306	0.209	6.41e-05	–
C=CC(=O)N1CC(N2CCCC(c3ccc4c(c3)Nc3nccc(N5CCOCC5)c3CO4)CC2)C1 (stereo not shown) [Compound 42]	123	> 10000	761	0.0811	6.17e-05	–
C=CC(=O)N1CC(c2ccc(-c3ccc4c(c3)Nc3nccc(N5CCOCC5)c3CO4)cn2)C1 [Compound 43]	339	> 10000	1100	0.0497	5.46e-05	–
C=CC(=O)N1CC(N2CCC(c3ccc4c(c3)Nc3ncc(C#N)c(N5CCOCC5)c3CO4)CC2)C1 [Compound 45]	1150	> 10000	1110	0.123	0.000137	–
C=CC(=O)N1CC(N2CCC(c3ccc4c(c3)Nc3nccc(N5CCC6(CCO6)CC5)c3CO4)CC2)C1 [Compound 46]	631	> 10000	456	0.223	0.000102	–
C=CC(=O)N1CC(N2CCC(c3ccc4c(c3)Nc3nccc(N5CCOC6(CCOCC6)C5)c3CO4)CC2)C1 [Compound 47]	871	> 10000	605	0.207	0.000125	–
C=CC(=O)N1CC(N2[C@@H]3CC[C@H]2C[C@@H](c2ccc4c(c2)Nc2nccc(N5CCOCC5)c2CO4)C3)C1 [Compound 49]	53.7	~10000	990	–	–	kinact/KI [1, 4]: 1150 M⁻¹ s⁻¹
CC#CC(=O)N1CC(N2CCC(c3ccc4c(c3)Nc3nccc(N5CCOCC5)c3CO4)CC2)C1 [Compound 50]	~178	> 10000	1090	0.132	0.000144	–
C=CC(=O)N1CC(c2nc(C)c(-c3ccc4c(c3)Nc3nccc(N5CCOCC5)c3CO4)c(C)n2)C1 [Compound 51]	417	> 10000	1110	0.0706	7.84e-05	–
C=CC(=O)N1CC(N2CCC(c3ccc4c(c3)OCc3c(-c5cnn(C)c5)ccnc3N4)CC2)C1 [Compound 52]	282	2820	998	0.166	0.000166	–
C=CC(=O)N1CC(N2CCC(c3ccc4c(c3)Nc3nccc(N5CCCOCC5)c3CO4)CC2)C1 [Compound 53]	186	> 10000	773	–	–	–
C=CC(=O)N1CC(N2[C@@H]3CC[C@H]2C[C@H](c2ccc4c(c2)Nc2nccc(N5CCOCC5)c2CO4)C3)C1 [Compound 54]	145	8130	997	0.1	0.0001	–
C=CC(=O)N1CCC(c2ccc3c(c2)OCc2c(N4CCOCC4)ccnc2N3)C1 (stereo not shown) [Compound 55]	> 10000	> 10000	2.45	–	–	–
